Common to all, as to assay type: cell-based
The subject of one experiment is E. coli DCO. The experiment in a line: MIC by agar-dilution technique, Diagnostic Sensitivity Test, E. coli DCO. The note with it: Escherichia coli, inoculum 10^4 CFU/spot. An excerpt:
(§1) The following results were obtained for representative compounds on a standard in vitro test system using Diagnostic Sensitivity Test. The antibacterial activity is described in terms of the minimum inhibitory concentration (MIC) determined by the agar-dilution technique with an inoculum size of 10^4 CFU/spot.

For a further experiment, the system named is P. morganii I + 001. The experiment in a line: MIC by agar-dilution technique, Diagnostic Sensitivity Test, P. morganii I + 001. The note with it: Morganella morganii, inoculum 10^4 CFU/spot.
Text: as §1

In experiment [1] the test system is Enterobacter cloacae P99-. Kind of experiment: MIC by agar-dilution technique, Diagnostic Sensitivity Test, Enterobacter cloacae P99-.
Text: as §1

The subject of another experiment is B. fragilis AMP S. The experiment in a line: MIC by agar-dilution technique, Diagnostic Sensitivity Test, B. fragilis AMP S. Particulars: Bacteroides fragilis, inoculum 10^4 CFU/spot.
Text: as §1

The subject of a further experiment is S. aureus Oxford. The experiment in a line: MIC by agar-dilution technique, Diagnostic Sensitivity Test, S. aureus Oxford. Particulars: Staphylococcus aureus, inoculum 10^4 CFU/spot.
Text: as §1

≈ marks a conversion by molar mass, not a printed value.

With `C[C@@H](O)[C@H]1C(=O)N2C(C(=O)O)=C(S[C@@H]3CN[C@H](C(=O)Nc4csc(C(=O)O)c4)C3)[C@H](C)[C@H]12` [Example 1, (1R,5S,6S,8R,2'S,4'S)-2-(2-(2-Carboxy-4-thienylcarbamoyl)pyrrolidin-4-ylthio)-6-(1-hydroxyethyl)-1-methylcarbapenem-3-carboxylic acid], the MIC amounted to 8 ng/mL (≈ 0.0166 µM) against E. coli DCO; 8 ng/mL in the experiment on P. morganii I + 001; 8 ng/mL (≈ 0.0166 µM) in experiment [1]; 125 ng/mL (≈ 0.26 µM) in the experiment with B. fragilis AMP S; 125 ng/mL (≈ 0.26 µM) in the experiment with S. aureus Oxford.

For orientation: MIC means the least concentration at which growth counts as inhibited.

The values are drawn from patent US5519015A, “Carbapenem antibiotic compounds” (Zeneca Limited, priority 1992, dated 1996).
